The source of these data is US11878003B2, “Composition comprising organoselenium compound for treatment of skeletal muscle atrophy” (Gwangju Institute of Science and Technology, priority 2021, dated 2024).

SMILES strings stand for the structures. Some results are limits rather than exact numbers.

In series [1] the test system is C2C12 myoblasts. Description: Myogenesis, myotube formation and morphology without dexamethasone. The series is classed as cell-based, mouse. As to the method: Then, the myoblasts were treated with a differentiation medium (DMEM supplemented with 2% horse serum and PenStrep) for 72 hours so that the myoblasts were induced to differentiate into myotubes.
In differentiation cultures, myotubes were visualized by treatment with 50 nM MitoTracker Red CMX-Ros and […] DAPI in a differentiation medium at 37° C. for 30 minutes and imaged using a fluorescence microscope (Leica DMI3000B, Germany) as described above.
To evaluate myotube formation and atrophy, five microscopic fields of H&E-stained or MitoTracker Red CMX-Ros-stained cultures were randomly captured, and multinuclear myotube formation and diameters were calculated. Myotubes were designated as multinucleated cells containing three or more nuclei, and the diameters of myotubes were calculated using ImageJ 1.48 software (National Institutes of Health, Bethesda, MD, USA).

Another series deals with human skeletal myoblasts. Kind of series: Dexamethasone atrophy in human skeletal myotubes. The series is classed as cell-based. The following applies: 24 hours. As to the method: Human skeletal myoblasts were purchased from Thermo-Fisher Scientific. Myoblasts were thawed in a water bath, washed with […], and centrifuged at 180 g for 5 minutes at room temperature. Next, myoblasts were resuspended in DM and seeded in a 12-well plate at a density of 4.8×10^4 cells/well. After 72 hours, the myoblasts were treated with a compound for 24 hours. The myotube diameter was measured by optical microscopy analysis of DIC captured images (Olympus CKX41).

Series [2] relates to Atrogin-1, MuRF-1, FoxO3a expression. Description: qPCR of atrophy genes in dexamethasone-treated myotubes. The series is classed as cell-based, mouse. The following applies: 10 μM dexamethasone 24 hours. The protocol:
C2C12 myoblasts were seeded onto 6-well plates in a growth medium (GM). After reaching confluence, the cultures were treated with DM for 72 hours, and myotube atrophy was induced with DM containing 10 μM dexamethasone for 24 hours in the presence or absence of the drug of interest. Myotubes were visualized using hematoxylin and eosin staining according to a previously published protocol, and imaged with an optical microscope (Olympus CKX41, Japan). A myotube distribution was calculated by dividing the number of myotubes in each group by the total number of myotubes per image.
The transcription level of the gene was measured using a StepOnePlus Real Time PCR System (manufactured by Applied Biosystems, UK). cDNA was reverse transcribed from total RNA using an AccuPower RT PreMix (manufactured by Bioneer, USA). Real-time PCR was performed by modifying the manufacturer's instructions as follows.
PCR was performed three times using a total of 20 μL of 2×Power SYBR Green PCR Master Mix containing 200 nM of specific primers and 1 μL of cDNA. 10 minutes of incubation was performed at 95° C. prior to PCR amplification. The amplification consisted of 40 cycles of denaturation (for 15 seconds at 95° C.), annealing (for 1 minute at 60° C.), and extension (for 20 seconds at 72° C.). Extension and fluorescence detection were performed at 72° C. after each cycle. After the final cycle, melting point analysis was performed using continuous fluorescence detection on samples at a temperature in a range of 60° C. to 95° C. Specific cDNA samples were included in each run and used as a reference for comparison between runs. Expression levels of GAPDH were used for normalization and expression levels of all other genes were calculated.

The subject of series [3] is C2C12 myoblasts. Kind of series: MTT assay, myoblast viability. The series is classed as cell-based, mouse. As to the method: C2C12 mouse skeletal muscle progenitor cells (myoblasts) were grown in a growth medium including Dulbecco's Modified Eagle's Medium (DMEM) supplemented with 10% fetal bovine serum (FBS), 50 units/mL if penicillin, and […] of streptomycin (PenStrep).
Cell proliferation was evaluated through MTT (3-(4,5-dimethylthiazol-2-yl)-2,5-diphenyltetrazolium bromide) assay as described above. Myoblasts were seeded 3 times into 96-well plates at a density of 2×10^3 cells per well. A compound to be tested was added, followed by 48 hours of incubation, the medium was changed to an MTT solution (0.5 mg/mL, final concentration), and the plate was incubated in an incubator at 37° C., 5%, CO2 conditions. After 60 minutes of incubation, 50 μL of DMSO was added. Optical density in each well was measured at 570 nm using a microplate reader (VersaMax, Molecular Devices, USA). For myotube analysis, myoblasts were differentiated for […], the medium was supplemented with the compound of interest, 48 hours of incubation was additionally performed, and the cultures were assayed.
For orientation: Formazan colour is commonly taken as a measure of viable cells.

The next series deals with IMPase. Description: IMPase activity assay in myotubes (myo-inositol assay kit). The series is classed as cell-based, mouse. The following applies: 10 μM dexamethasone. As to the method: IMPase activity in cells and tissues was measured using a myo-inositol assay kit (Megazyme, Ireland) according to the manufacturer's instructions. The cell […] was sonicated in PBS for 90 seconds with a 30-second on and 15-second off cycle (Vibra-Cell, USA) as described above, and then centrifuged at 13,000×g for 15 minutes as described above. Thus, the supernatant was prepared.

In another series the test system is FoxO3a. Kind of series: Immunocytochemistry of FoxO3a in myotubes. The series is classed as cell-based, mouse. As to the method:
Myoblasts were differentiated into myotubes in 6 well plates. The myotubes were then immunostained for FoxO3a (Cell Signaling Technology, dilution of 1:400). Alexa Fluor 488 goat anti-mouse IgG was used as a secondary antibody (manufactured by Invitrogen). Nuclei were stained using DAPI solution (1 μM dissolved in third distilled water). Staining was visualized by fluorescence microscopy (Leica DMI3000 B).

For the next series, the system named is C57BL/6J mice. Description: Skeletal muscle atrophy dexamethasone model. The series is classed as in vivo, mouse. The protocol:
13-week-old male C57BL/6J mice were treated with drugs as follows: • 1) Injection of vehicle (4% hydroxypropyl-β-cyclodextrin) alone; • 2) 15 mg/kg of dexamethasone dissolved in vehicle; • 3) 15 mg/kg of dexamethasone and 1 mg/kg of ebselen; and • 4) Injection of 15 mg/kg dexamethasone and 3 mg/kg ebselen (n=5 per group).
The muscle condition was evaluated after intraperitoneal injection daily for 14 days with the same drug as above.
A grip strength of each mouse was recorded using a BIO-GS3 (Bioseb, USA). To measure the grip strength, mice were placed on a metal grid to grip the metal grid with four paws and were gently pulled back until the mice were unable to continue holding the grid. Muscle strength was expressed using the maximum value obtained from three trials at 1-minute intervals.
Mice were placed in the center of a grid, and it was made sure that the grid was gripped by the limbs of the mice. Next, the grid was turned over and hung at a height of 50 cm above a baseline, and the hanging time was measured up to 10 minutes.
In the case of the dexamethasone-induced atrophy model, the quadriceps, gastrocnemius and splenic muscles were dissected and weighed. The quadriceps were stained with H&E according to the same protocol used for the glycerol test and used for histological analysis.

Turning to `O=c1c2ccccc2[se]n1-c1ccccc1` [ebselen], the “myotube formation and overall myotube diameters” value in the series on C2C12 myoblasts [1] (10 μM ebselen, 5 mM LiCl or 1.25 μM BIO, 24 hours) is “enhanced myotube formation and increased overall myotube diameters”. The “proportion of larger diameter myotubes” value with C2C12 myoblasts [1] (no dexamethasone) is listed as “significantly increased”. Also, the “myotube diameter and proportion of large diameter myotubes” value in the series on human skeletal myoblasts is listed as “inhibited the effect of dexamethasone”. In series [2], the “Atrogin-1 and FoxO3a expression” value is on record as “inhibited the up-regulation”. Also, in the series on C2C12 myoblasts [3] (MTT), the “concentration at which cytotoxicity was not observed” value was at most 10 µM. The IC50 with C2C12 myoblasts [3] (Mus musculus, C2C12, 48 hours, read-out: IC50, MTT assessment) was 22.4 µM. Moreover, the IMPase activity result in the series with IMPase was “effective in inhibiting IMPase activity”. Moreover, in the series on FoxO3a, the “FoxO3a up-regulation caused by dexamethasone” value was “inhibited”. Besides, the body weight result in the series with C57BL/6J mice (15 mg/kg dexamethasone with ebselen, i.p. daily 14 days, vs untreated mice) is reported as “significant weight loss”. Also, the quadriceps mass entry in the series on C57BL/6J mice (15 mg/kg dexamethasone, 1 or 3 mg/kg ebselen, i.p. daily 14 days) is reported as “recovered”. In addition, in the series with C57BL/6J mice (inverted hanging test, vs dexamethasone-treated mice), the hanging time result is reported as “significantly enhanced”. In the series with C57BL/6J mice (quadriceps), the IMPase activity result is listed as “inhibitory effect of ebselen on IMPase activity was confirmed”. Also, in the series with C57BL/6J mice (quadriceps, histology), the “muscle fiber cross-sectional area” value was “increased” and the “ratio of larger fibers” value is on record as “increased”. The “expression of Atrogin-1 and Murf-1” value with C57BL/6J mice (quadriceps, qPCR) is recorded as “effectively reduced”. In the series on C57BL/6J mice (vs dexamethasone-treated mice), the grip strength entry is reported as “significantly enhanced”.

Usually IC50 stands for the concentration that gives 50% inhibition.
